Where two headings read alike, the source gives them in different places.
Assays:
[1] = target: T1, fibrinogen receptor (glycoprotein IIb/IIIa) (Homo sapiens, UniProt P05106+P08514); assay: Inhibition of binding of 125I-fibrinogen to its receptor on intact, gel-filtered human platelets; conditions: inhibition of 125I-fibrinogen binding, stimulation with ADP (10 μM), read-out: Ki (μM), ADP-stimulated
T1 construct: endogenous in cells; host or cells: gel-filtered human platelets from donor blood, stimulated with ADP (10 µM)
Description: (§1) The compounds are tested in particular for their inhibitory action in blood platelet aggregation and the adhesion of fibrinogen to blood platelets. Gel-filtered blood platelets from human donor blood are used, which are activated with ADP or thrombin.
The inhibition of the binding of fibrinogen to its receptor (glycoprotein IIb/IIIa) by the compounds according to the invention is tested on intact, gel-filtered human platelets. The Ki value of the inhibition of binding of ^125 I-fibrinogen after stimulation with ADP (10 μM) is given.

[2] = tested on: gel-filtered human platelets; assay: Inhibition of aggregation of gel-filtered human platelets after ADP or thrombin stimulation; format: cell-based
Description: as §1
As a functional test, the inhibition of aggregation of gel-filtered human platelets by the compounds according to the invention is measured after ADP or thrombin stimulation. The IC50 value of the inhibition is given.

[3] = Platelet, ADP stimulation, read-out: IC50 (μM), ADP-stimulated
[4] = Platelet, thrombin stimulation, read-out: IC50 (μM), Thrombin-stimulated
[5] = ADP stimulation, read-out: IC50 (μM), ADP-stimulated
[6] = thrombin stimulation, read-out: IC50 (μM), Thrombin-stimulated

T1 sequence (P08514 32-887 limits assumed): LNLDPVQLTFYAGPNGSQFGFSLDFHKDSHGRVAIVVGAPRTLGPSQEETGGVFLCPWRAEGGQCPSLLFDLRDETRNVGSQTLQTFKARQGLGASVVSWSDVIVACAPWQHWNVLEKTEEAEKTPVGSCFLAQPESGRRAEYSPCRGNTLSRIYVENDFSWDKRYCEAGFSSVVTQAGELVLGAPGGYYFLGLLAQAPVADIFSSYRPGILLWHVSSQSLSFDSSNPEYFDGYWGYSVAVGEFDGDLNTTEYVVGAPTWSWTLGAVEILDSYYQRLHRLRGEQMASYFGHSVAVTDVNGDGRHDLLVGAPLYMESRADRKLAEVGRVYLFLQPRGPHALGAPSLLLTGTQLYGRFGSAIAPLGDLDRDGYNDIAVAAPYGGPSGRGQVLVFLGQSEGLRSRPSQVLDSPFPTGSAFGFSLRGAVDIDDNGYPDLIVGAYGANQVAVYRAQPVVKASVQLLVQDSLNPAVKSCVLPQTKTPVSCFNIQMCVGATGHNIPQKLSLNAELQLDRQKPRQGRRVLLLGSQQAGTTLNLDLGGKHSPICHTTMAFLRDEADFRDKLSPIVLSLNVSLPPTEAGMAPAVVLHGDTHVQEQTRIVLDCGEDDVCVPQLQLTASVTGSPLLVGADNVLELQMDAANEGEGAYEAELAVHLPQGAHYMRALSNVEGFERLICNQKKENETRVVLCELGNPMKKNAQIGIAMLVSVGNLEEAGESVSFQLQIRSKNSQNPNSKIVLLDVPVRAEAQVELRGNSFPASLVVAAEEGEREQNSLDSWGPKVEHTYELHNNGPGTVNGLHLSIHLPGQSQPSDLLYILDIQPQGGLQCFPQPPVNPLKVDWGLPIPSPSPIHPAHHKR
T1 sequence (P08514 891-1039 partner limits assumed): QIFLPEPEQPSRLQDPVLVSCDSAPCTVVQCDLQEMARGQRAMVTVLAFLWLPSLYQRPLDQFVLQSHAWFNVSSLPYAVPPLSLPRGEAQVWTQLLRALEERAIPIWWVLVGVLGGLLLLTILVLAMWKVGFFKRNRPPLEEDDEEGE
T1 sequence (P05106 27-788): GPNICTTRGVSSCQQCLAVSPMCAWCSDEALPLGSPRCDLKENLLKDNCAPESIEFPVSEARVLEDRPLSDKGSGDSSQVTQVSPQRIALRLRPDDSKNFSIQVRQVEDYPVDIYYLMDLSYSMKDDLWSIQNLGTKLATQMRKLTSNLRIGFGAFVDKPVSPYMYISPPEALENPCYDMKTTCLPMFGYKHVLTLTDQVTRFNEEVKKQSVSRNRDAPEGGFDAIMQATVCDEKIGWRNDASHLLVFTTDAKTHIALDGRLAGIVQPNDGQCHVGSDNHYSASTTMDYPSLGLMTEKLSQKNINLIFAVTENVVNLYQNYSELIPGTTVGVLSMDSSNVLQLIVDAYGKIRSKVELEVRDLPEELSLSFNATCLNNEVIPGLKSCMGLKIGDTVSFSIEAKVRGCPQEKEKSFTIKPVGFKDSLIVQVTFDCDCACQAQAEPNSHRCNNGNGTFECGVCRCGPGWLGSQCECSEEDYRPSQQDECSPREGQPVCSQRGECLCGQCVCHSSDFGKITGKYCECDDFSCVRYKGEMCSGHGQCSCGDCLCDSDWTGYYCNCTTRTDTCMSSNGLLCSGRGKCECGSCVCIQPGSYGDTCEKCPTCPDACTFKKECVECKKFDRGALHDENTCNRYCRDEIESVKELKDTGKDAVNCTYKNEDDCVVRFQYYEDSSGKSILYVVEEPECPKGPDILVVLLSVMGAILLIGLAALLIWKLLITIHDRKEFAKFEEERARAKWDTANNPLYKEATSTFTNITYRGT

| Ki [1] [µM] | IC50 [2, 3] [µM] | IC50 [2, 4] [µM] | Structure (SMILES) | IC50 [2, 5] [µM] | IC50 [2, 6] [µM] |
| --- | --- | --- | --- | --- | --- |
| 2.5 | 1.5 | 2 | N=C(N)NCCC[C@@H]1NC(=O)N(CC(=O)N[C@@H](CC(=O)O)C(=O)N[C@@H](Cc2ccccc2)C(=O)NCCCCN)C1=O [Example 1, (5-(S)-(3-Guanidinopropyl)-2,4-dioxoimidazolidin-3-yl)acetyl-L-aspartyl-L-phenylalanine (4-aminobutyl) amide acetate] | – | – |
| 2.44 | 3 | 3.5 | N=C(N)NCCC[C@@H]1NC(=O)N(CC(=O)N[C@@H](CC(=O)O)C(=O)N[C@@H](Cc2ccccc2)C(=O)NCCCCCCN)C1=O [Example 2, (5-(S)-(3-Guanidinopropyl)-2,4-dioxoimidazolidin-3-yl)acetyl-L-aspartyl-L-phenylalanine (6-aminohexyl) amide acetate] | – | – |
| 3.21 | 5 | 3 | N=C(N)NCCC[C@@H]1NC(=O)N(CC(=O)N[C@@H](CC(=O)O)C(=O)N[C@@H](Cc2ccccc2)C(=O)NCCCCCCCCN)C1=O [Example 3, (5-(S)-(3-Guanidinopropyl)-2,4-dioxoimidazolidin-3-yl)acetyl-L-aspartyl-L-phenylalanine (8-aminooctyl) amide acetate] | – | – |
| 0.17 | – | – | N=C(N)c1ccc(CC2NC(=O)N(CC(=O)N[C@@H](CC(=O)O)C(=O)N[C@@H](CCCCN)C(=O)NCCCCN)C2=O)cc1 (stereo partly drawn) [Example 7, (5-(R,S)-(4-Formamidino-benzyl)-2,4-dioxoimidazolidin-3-yl)acetyl-L-aspartyl-L-lysine (4-aminobutyl) amide] | 0.25 | 0.6 |

| Structure (SMILES) | Ki [1] [µM] | IC50 [2, 3] [µM] | IC50 [2, 4] [µM] | IC50 [2, 5] [µM] | IC50 [2, 6] [µM] |
| --- | --- | --- | --- | --- | --- |
| N=C(N)c1ccc(CC2NC(=O)N(CC(=O)N[C@@H](CC(=O)O)C(=O)N[C@@H](Cc3ccccc3)C(=O)NCCCCN)C2=O)cc1 (stereo partly drawn) [Example 4, (5-(R,S)-(4-Formamidinobenzyl)-2,4-dioxoimidazolidin-3-yl)acetyl-L-aspartyl-L-phenylalanine (4-aminobutyl) amide acetate] | 0.32 | – | – | 0.45 | 1 |

From patent publication US5397796A, “2,4-dioxoimidazolidine compounds and compositions, and processes for administering same” (Cassella AG, priority 1992, dated 1995)
